Molecules are shown by their SMILES. Like-named read-outs stand apart in the source and are kept apart here.

Data set [1] in a line: Systemic uptake after topical alpha-DFMO, animal studies. In kind it is in vivo. The following applies: topical application. The text has this: The generic name for alpha-DFMO is eflomithine, which is a racemic mixture of two enantiomers. […] Nonetheless, it may be possible to obtain the advantages of the present invention as described above using only one or the other of the two enantiomers that form the racemic mixture of alpha-DFMO; accordingly, the use of the term “alpha-DFMO” herein should be understood, for purposes of the present patent application, to include both the racemic mixture of the two enantiomers that normally make up alpha-DFMO, as well as each of the two enantiomers that collectively make up the racemic mixture of alpha-DFMO.

The subject of data set [2] is Human Cervical Epithelial and Cancerous Cell Lines. The following applies: in vitro, dose dependent and time dependent, partially through inducing apoptosis; cited from earlier work.
Data set [3] concerns colon adenocarcinomas. The following applies: studies referred to by Reddy et al; cited from earlier work.
The test system of data set [4] is UVB-induced skin cancers. The following applies: p.o.; 38% in placebo treated controls; cited from earlier work.
The test system of data set [5] is human colon tumor xenograft (T6) cells. The following applies: in vitro; cited from earlier work.
In data set [6] the test system is actinic keratoses. The following applies: topical hydrophilic cream, human subjects; cited from earlier work.
Data set [7] can be described thus: Skin reactions after topical application in studies treating actinic keratoses. In kind it is in vivo, human. The following applies: alpha-DFMO alone, without topical steroid or NSAID, past studies. The text has this:
The new combination also provides a new method for treating vulvar neoplasia which is much more likely to be tolerated than currently available methods. […] Though topical application to the inside of the mouth may be more difficult, it is preferably achieved by providing a thick gel or cream, and applying to the affected area, preferably during the middle of the night when the mouth is dry.

In data set [8] the test system is II-4 human squamous cell skin cancer cells. Put plainly: In vitro sulforhodamine B surviving fraction study of alpha-DFMO, triamcinolone and diclofenac. The data set is classed as cell-based. The following applies: single drug, Day 1 to Day 7. The method, then:
This study was directed to II-4 human squamous cell skin cancer cells.
The cell culture was maintained as a monolayer culture. The cells were plated in 96 well microtiter plates on Day 0 of the study. Some of such wells were used as control wells, so no drugs were added thereto. The aforementioned combination of drugs was added to the microtiter test wells on Day 1. On Day 7, the plates were fixed with cold 10% trichloroacetic acid, and then washed four times with distilled water. Each plate was then stained with 0.4% sulforhodamine B. Excess stain was then removed by washing the plate four times with 1% acetic acid. The stained dye is then solubilized with 50 mM Tris. The stained plates were then “read”, i.e., measured for optical density, on an automatic plate reader at 540 nm. A lower optical density corresponds to a smaller volume of cancerous cells, and a higher optical density corresponds to a larger volume of cancerous cells. A surviving fraction factor fs is then computed for the treated well plates by taking the mean optical density of the treated well plates and dividing by the mean optical density of the control well plates.
As explained in the aforementioned article by Alberts, et al., a mathematically-derived expected fraction factor (fs*) can be computed for each three-drug combination by multiplying together the individual fraction factors for the three individual drugs. A ratio can then be computed for the actual experimentally-determined fraction factor fs divided by the expected fraction factor fs*, and this ratio is presented in the rightmost column of the table in FIG. 7. […] The lower the ratio, the more synergistic is the combination.

Data set [9] relates to polyamine de novo synthesis and DNA polymerase. The following applies: colon and small intestine; cited from earlier work.
Data set [10] has as its system human lung adenocarcinoma cell line (A549). The following applies: A549, in vitro; cited from earlier work.
Data set [11] has as its system II-4 cells in SCID mice. Put plainly: Third study: topical alpha-DFMO, triamcinolone or the combination on II-4 tumor volume in SCID mice. In kind it is in vivo, mouse. The following applies: single agent, topical daily from 24 hours after implantation; alpha-DFMO 5% or 10%, triamcinolone 0.05% or 0.1%; FIG. 6. The method, then:
The control groups received either no treatment (n=4), or the ointment base (hydrophilic ointment, U.S.P. alone (n=4), or the ointment base (hydrophilic ointment, U.S.P. alone (n=4). Treatments were given daily to the tumor-bearing […] skin continuously beginning 24 hours after tumor implantation. Palpable tumors were measured bi-dimensionally using calipers, three times per week, until tumor sizes approximated 1,500 mm^3 (about 1.5 g). The mice were then euthanized.

In data set [12] the test system is cervical intraepithelial neoplasia level III. The following applies: cited from earlier work.
Data set [13] concerns UVB-induced skin cancers. The following applies: topical, acetone vehicle; cited from earlier work.
The conditions of data set [14]: topical, cited from earlier work.
In data set [15] the test system is actinic keratoses. The following applies: 0.5% cream added to topical fluorouracil; cited from earlier work.
Setting [16] is: 0.06 to 1.0 g/m^2 per day for 30 days.

As for `NCCC[C@](N)(C(=O)O)C(F)F` (racemic) [alpha-DFMO, Alpha-Difluoromethylornithine], the systemic uptake result in data set [1] was “negligible systemic uptake”. In addition, the “growth of cervical pre-cancerous and cancerous cells” value in data set [2] is given as “inhibits the growth”. Further, the “effect on colon adenocarcinomas” value in data set [3] was “inhibited colon adenocarcinomas”. In addition, the “UVB-induced skin cancers in treated animals” value in data set [4] is recorded as 9%. Also, the growth inhibition entry in data set [5] and in [10] was “dose-dependent growth-inhibitory effect” in each case. For the same compound, the “number of AKs on the arms” value in data set [6] is “reduced the number of AKs”. For the same compound, the “incidence of skin reactions” value in data set [7] is given as about 20%. The “surviving fraction factor fs” value in data set [8] (50 μM) came to 0.749; in [8] (75 μM), 0.807. For the same compound, in data set [9], the “DMH-induced activation of polyamine de novo synthesis and DNA polymerase” value was “completely prevented”. Moreover, the “rate of tumor growth (tumor volume over fifty days)” value in [11] is “decreases the rate of tumor growth”. In data set [12] (0.06 to 1.0 g/m^2 per day for 30 days, 30 women), the overall response rate is recorded as 50%. Also, the “patients experiencing a complete response” value in data set [12] (setting [16]) is given as “five out of thirty”. Also, in data set [12] (setting [16]), the “patients experiencing a partial response (reduction to levels I or II)” value was “ten out of thirty”. Besides, in data set [12] (setting [16]), the toxicity entry is on record as “minimal toxicity”. Further, the “dose down to which serum polyamine modulation was significant” value in [12] (serum) was 0.125 g/m^2 per day. In addition, the “dose level down to which tissue polyamine modulation was significant” value in [12] (tissue) is on record as 0.5 g/m^2 per day. The UVB-induced skin cancers entry in data set [13] is listed as “dramatically reduced”.

Take `O=c1[nH]cc(F)c(=O)[nH]1` [5-FU, 5-fluorouracil]: the tolerability result was “relatively well tolerated” in data set [14] (in the vagina) and “extremely poorly tolerated” in data set [14] (on the vulva).

For `CC(=O)Oc1ccccc1C(=O)O` [aspirin], in data set [3], the “effect on colon adenocarcinomas” value was “inhibited colon adenocarcinomas”.

For `C=CCSSCC=C` [diallyl disulfide], the “effect on colon adenocarcinomas” value in data set [3] was “inhibited colon adenocarcinomas”.

Regarding `O=C(O)Cc1ccccc1Nc1c(Cl)cccc1Cl` [diclofenac], the “surviving fraction factor fs” value in data set [8] (150 μM) stood at 0.703; in data set [8] (175 μM), 0.518.

On to `CC(C)Cc1ccc(C(C)C(=O)O)cc1` (centres unmarked) [ibuprofen], for which the “effect on colon adenocarcinomas” value in [3] was “inhibited colon adenocarcinomas”.

As to `Cc1c(-c2cnccn2)ssc1=S` [oltipraz], the “effect on colon adenocarcinomas” value in data set [3] was “inhibited colon adenocarcinomas”.

Take `CN1C(C(=O)Nc2ccccn2)=C(O)c2ccccc2S1(=O)=O` [piroxicam]: the “effect on colon adenocarcinomas” value in data set [3] is “inhibited colon adenocarcinomas”.

On to `CC1=C(CC(=O)O)c2cc(F)ccc2/C1=C\c1ccc([S+](C)[O-])cc1` (centres unmarked) [sulindac], for which the “effect on colon adenocarcinomas” value in [3] is “inhibited colon adenocarcinomas”.

On to `CC1(C)O[C@@H]2C[C@H]3[C@@H]4CCC5=CC(=O)C=C[C@]5(C)[C@@]4(F)[C@@H](O)C[C@]3(C)[C@]2(C(=O)CO)O1` [triamcinolone, triamcinolone acetonide], for which the “surviving fraction factor fs” value in data set [8] (100 μM) worked out at 0.999; in [8] (150 μM), 0.999; in data set [8] (200 μM) it was 0.872. In addition, in data set [15], the “effect on inflammatory response to fluorouracil” value is “reduce inflammatory response”. In addition, the “effect on the effectiveness of fluorouracil” value in data set [15] is recorded as “did not alter the effectiveness of the fluorouracil”. For the same compound, the “rate of tumor growth (tumor volume over fifty days)” value in [11] is reported as “decreases the rate of tumor growth”.

(Values after patent publication US20040106588A1 (priority 2002, published 2004).)
